Here are results for 14 compounds from patent US12383628B2 (priority 2016, dated 2025).

Entries after “also recorded” stand apart in the source; their conditions may differ. Square brackets hold non-standard residues; d marks the D form. Ends that are not written are not given here. Peptide text beside a SMILES is read from it. Phe(3-Br) = N[C@@H](Cc1cccc(Br)c1)C(=O)O; Dmt = Cc1cc(O)cc(C)c1C[C@H](N)C(=O)O; β3hF = N[C@H](CC(=O)O)Cc1ccccc1

One data set is described as follows: human plasma. The note with it: 37° C.; for cleaved bond / fragment found: up to 60 min.
Data set [1] in a line: Peptide gelation (tilted tube / inverted vial test, minimum gelation concentration). The data set is classed as physicochemical. The note with it: for Minimum gelation concentration (w/v % in PBS): '/' = no gel. How it is done:
The peptide gelation occurred by dissolving the TFA salt of the hexapeptide (2 mg) in 100 μL of PBS solution (pH 7.4) or physiological saline solution (0.9% NaCl).
Both peptides 2 and 4 (Table 1) gave a transparent gel in the same conditions (PBS 10 mM at pH 7.4 with a minimum gelation concentration of 24 mM; 2% w/v). To evaluate the mechanical properties of these hydrogels in a more quantitative manner, rheological experiments were performed. The viscoelastic properties of the peptide hydrogels were measured by dynamic rheometry at 37° C. This technique allowed to measure the storage modulus G′ (corresponding to the material's stiffness or rigidity), loss modulus G″ (corresponding to the viscous properties of the material) and loss factor tan (o) (ratio of G″ over G′). According to the Winter-Chambon criterion, a material reaches gelation in rheological terms if the phase angle o gets frequency-independent (F. Chambon et al., 1987 and H. Winter et al., 1987).
The peptide gelation occurred by dissolving the TFA salt of the peptide in 100 μL of PBS solution or physiological saline solution (0.9% NaCl) (pH 7.4).
The peptide gelation occurs by dissolving the TFA salt of the hydrogelator (1 or 2 mg) in 100 μL of aqueous media, PBS solution (pH 7.4) or physiological saline solution (0.9% NaCl). After successive vortexing and sonication, the gel is left to rest overnight at room temperature.
The hydrogelation was realized under physiologically relevant conditions, namely via the addition of phosphate-buffered saline (PBS) or sterile physiological saline solution (0.9% NaCl). The needed amount of hydrogelator was weighed in an Eppendorf® and solubilized by the addition of the above solutions. After vortex and sonication steps, the resulting solution was left at room temperature until gelation occurred. The gelation was qualitatively verified by the inverted vial test (if no gravitational flow was visible the gelation was considered successful). It can be noticed that all peptide hydrogelators depicted formed gels in PBS and saline solution at a concentration of 1 to 2% w/v.

Data set [2] can be described thus: Dynamic rheometry of hydrogels (storage modulus G′). The data set is classed as physicochemical.
Experimental: Dynamic rheometry measurements were performed on an AR-G2 rheometer (TA Instruments) equipped with electrically heated plates and a 10 mm-diameter aluminium parallel plate-plate geometry. Viscoelastic properties were measured by oscillatory frequency sweeps at 37° C. in the range between 0.01 and 10 Hz, using a controlled strain of 0.05%. Hydrogel samples were made 12 h in advance. A ring-shaped reservoir filled with a saturated NH4Cl solution was used as a solvent trap.
The nature of data set [3]: TEM / cryo-TEM fibre morphology of hydrogels. The data set is classed as physicochemical. The note with it: cryoTEM and negative staining, Example 9. As to the method: Formvar carbon-coated 400-mesh copper grids (Agar Scientific, Stansted, United Kingdom) were treated with plasma using an ELMO Glow discharge system to clean the grid surface and to render the carbon surface hydrophilic. Hydrogel samples were prepared 12 h in advance as described above. Small aliquots of sample (5 μL) were pipetted onto the carbon grids for adsorption. After 30 s, excess of sample was removed by using a Whatman 541 filter paper. The loaded grids were stained during 10 s with 1% uranyl formate after which the grids were air-dried. Samples were analysed using a JEOL JEM-1400 transmission electron microscope, operating at accelerating voltage of 120 kV. Images were recorded on a CMOS TemCam-F416 camera and accessory software of TVIPS.
200-mesh copper grids coated with perforated carbon film (Lacey carbon film: ProSci-Tech Old, Australia) were used and were glow discharged in nitrogen for 5 s immediately prior to use. Hydrogel samples were prepared 12 h in advance as described above. Small aliquots of sample (4 μL) were pipetted onto the carbon grids for adsorption. After 30 s, excess of sample was removed by using a Whatman 541 filter paper. The grid was then plunged into liquid ethane cooled by liquid nitrogen. Frozen grids were stored in liquid nitrogen until required. Samples were analysed using a Gatan 626 cryoholder and Tecnai 12 Transmission electron microscope, operating at accelerating voltage of 120 kV. Images were recorded using an FEI Eagle 4k×4k CCD camera.

A further data set deals with L929 mouse fibroblasts. The data set is described as follows: Cytotoxicity, Live/Dead viability staining on hydrogels (Example 9). The data set is classed as cell-based. As to the method:
Hydrogels were prepared at 1, 2 or 3 mg/100 μL as duplicate in a 96-well ULA plate (Cat #CORN3474; Corning-Costar, 60 μL each well). The gels were photographed and pre-equilibrated before seeding with cells. For equilibration, gels were incubated at room temperature in 40 μL of L929 culture medium with double-strength Anti-Anti (Cat #15240062, GIBCO) for 2 h prior to seeding with cells. The equilibration medium was removed before cell seeding and retained to examine if the gels dissolved (even partially) or disintegrated into the culture medium. Next, […] mouse fibroblasts (ATCC) were seeded onto hydrogels at a concentration of 200,000 cells/ml in a volume of 50 μl. The cells were photographed immediately after seeding, observed by microscopy 2 h post-seeding and then observed and photographed at 24 h post-seeding. The cell culture medium consisted of MEM+GlutaMAX I (Cat #41090-036; GIBCO); 10% foetal bovine serum (Cat #12003C; SAFC, Sigma), 2× Anti-Anti (Cat #[…]) and 1× Non-Essential Amino Acids (Cat #41090-036; GIBCO).
Bright field microscopy was performed through use of a IX71 inverted microscope with NIS-Elements F3.0 imaging software (Olympus). The TE2000 Eclipse fluorescent microscope with NIS-Elements AR3.2 software (Nikon) was used for fluorescence imaging microscopy. Automated cell counting was performed on the NC-200 NucleoCounter using proprietary lysis and stabilising reagents and cassettes (ChemoMetec).
The viability and distribution of cells was assessed using a LIVE/DEAD Viability/Cytotoxicity Kit *for Mammalian cells* (Live-Dead Kit), (Cat #13224; Molecular Probes). Briefly, a working solution of live/dead solution was made as per manufacturer's instructions by adding 1.25 μl of Calcein AM (solution A) to 2.5 ml of pre-warmed PBS. The solution was thoroughly mixed by vortex and 2.5 μl of Ethidium homodimer (solution B), was added before vortexing a second time to mix. Excess medium was removed and the gels rinsed with 20 μl of warm PBS before a 40 μl of Live/Dead kit working solution was added to each well. The plate was incubated in a 37° C. cell culture incubator for 20 min before viewing using a fluorescent microscope. Green fluorescence was emitted from the cytoplasm of viable cells (excitation/emission ˜495 nm/˜515 nm) while dead cell nuclei fluoresced red (excitation/emission ˜495/˜635 nm) allowing a distinction to be made between viable and dead cells.

The next data set can be described thus: in vitro. The note with it: human, plasma.
Another data set concerns the target MOR (Homo sapiens, UniProt P35372). As to the kind of experiment: Binding tests (Ki) MOR.
The next data set addresses DOR (Homo sapiens, UniProt P41143). As to the kind of experiment: Binding tests (Ki) DOR.
The target of another data set is KOR (Homo sapiens, UniProt P41145). The data set is described as follows: Binding tests (Ki) KOR.
The subject of a further data set is Male CD1 mice. The data set is described as follows: Radiant heat tail-flick test after s.c. administration, opioids in solution or co-formulated with hydrogelator. The data set is classed as in vivo, mouse. The conditions noted are these: for Time after administration at which no effect was detected / Time of peak antinociceptive action: s.c. bolus in solution (morphine 5 mg/kg; 14-MM 2.25 μg). How it is done: Male CD1 mice (6-8 weeks old, body weight average 30 g) were obtained from Charles River (Sulzfeld, Germany). Mice were group-housed in a temperature controlled room with a 12 h light/dark cycle and with free access to food and water. All animal studies were conducted in accordance with ethical guidelines and animal welfare standards according to Austrian regulations for animal research, and were approved by the Committee of Animal Care of the Austrian Federal Ministry of Science and Research.
The radiant heat tail-flick test was used to assess antinociceptive effects of tested drugs after s.c. administration in mice using an UB 37360 Ugo Basile analgesiometer (Ugo Basile s.r.l., Varese, Italy) as described previously (A. Novoa et al., 2012). The reaction time required by the mouse to remove its tail due to the radiant heat was measured and defined as the tail-flick latency. A cut-off time of 10 s was also used in order to minimize tissue damage. The antinociceptive response was expressed as percent of Maximum Possible Effect (% MPE)=[(TL-BL)/(cut-off time-BL)]×100. Data were analyzed with ANOVA using Tukey's multiple comparison test, and graphically processed with the GraphPad Prism Software (GraphPad Software Inc., San Diego, CA).
(§1) Performed as described in Example 5.
as §1
The antinociceptive effect of co-formulations of a peptide hydrogelator as described herein with peptide-based analgesics was investigated in a model of thermal nociception using the tail-flick test in mice. […] The Tail-flick test was performed as described in Example 5.

Sequence of MOR (P35372 whole entry): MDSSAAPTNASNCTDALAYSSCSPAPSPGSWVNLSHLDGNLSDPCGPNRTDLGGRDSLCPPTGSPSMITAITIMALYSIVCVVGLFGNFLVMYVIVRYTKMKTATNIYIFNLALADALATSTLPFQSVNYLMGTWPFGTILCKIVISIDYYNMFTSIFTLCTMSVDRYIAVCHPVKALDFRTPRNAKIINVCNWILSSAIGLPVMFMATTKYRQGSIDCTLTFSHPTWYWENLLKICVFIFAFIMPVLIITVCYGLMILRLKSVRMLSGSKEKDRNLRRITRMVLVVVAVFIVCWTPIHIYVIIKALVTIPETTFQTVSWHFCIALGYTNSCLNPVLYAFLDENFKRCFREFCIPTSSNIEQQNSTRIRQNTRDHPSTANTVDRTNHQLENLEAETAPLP
Sequence of DOR (P41143 whole entry): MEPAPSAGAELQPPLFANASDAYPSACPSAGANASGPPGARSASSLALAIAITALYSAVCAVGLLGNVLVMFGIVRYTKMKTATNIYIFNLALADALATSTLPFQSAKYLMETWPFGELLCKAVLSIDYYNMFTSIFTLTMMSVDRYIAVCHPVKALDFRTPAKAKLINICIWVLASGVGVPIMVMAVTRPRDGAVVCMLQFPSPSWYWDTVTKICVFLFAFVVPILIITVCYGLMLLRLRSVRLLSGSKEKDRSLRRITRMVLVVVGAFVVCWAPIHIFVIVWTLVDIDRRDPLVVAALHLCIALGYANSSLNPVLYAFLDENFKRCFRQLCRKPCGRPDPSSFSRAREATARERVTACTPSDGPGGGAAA
Sequence of KOR (P41145 whole entry): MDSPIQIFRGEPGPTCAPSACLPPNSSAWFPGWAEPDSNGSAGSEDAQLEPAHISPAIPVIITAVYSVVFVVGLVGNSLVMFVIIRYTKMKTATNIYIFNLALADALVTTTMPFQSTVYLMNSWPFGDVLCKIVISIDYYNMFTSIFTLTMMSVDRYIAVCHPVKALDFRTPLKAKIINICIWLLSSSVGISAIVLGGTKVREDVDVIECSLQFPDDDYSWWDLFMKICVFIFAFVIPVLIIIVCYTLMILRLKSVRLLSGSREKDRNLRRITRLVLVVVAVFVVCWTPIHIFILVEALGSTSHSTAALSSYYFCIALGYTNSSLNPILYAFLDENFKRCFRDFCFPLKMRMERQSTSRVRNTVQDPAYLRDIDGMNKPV
Experimental for in vitro: Human plasma was obtained from the Belgian Red Cross (Vlaams-Brabant, Leuven). Prior to the stability test, selectivity, stability of the compound in the injection solvent, linearity, accuracy and precision of the method were investigated. Frozen (−20° C.) human plasma samples were thawed and thermostated to 37±2° C. Dissolution of the lyophilized peptide and consecutive dilutions were performed in water. The resulting aqueous solutions of each peptide individually was spiked in human plasma (10:90 v/v) with final plasma concentrations of 9 μM.
On every time point 100 μL spiked plasma was transferred to a 500 μL Eppendorf tube and a protein crash was performed using the corresponding precipitation solvent (4° C.). Suspensions were vortexed for 15 s and placed at 4° C. for 30 to 45 min. After centrifugation at 18 625 g for 20 min, 100 μL supernatant was diluted with 100 μL water in the injection vial.
Injection samples were vortexed for 5 sand placed in the autosampler. […] Concentrations were calculated by use of the calibration curve and transferred to a semi-log chart presenting the log concentrations as a function of time. The optimum curve was used to calculate the peptide half-life. Calculations were performed using Microsoft® Office Professional 2010 Excel.

As for H-DLys-DPhe-DGln-DPhe*-DGlu-DPhe-NH2, in “human plasma” (up to 1500 min), the not cleaved entry is on record as “remains intact after 25 h of incubation”.

“H-Phe(3Br)-Gln-Phe(3Br)-Gln-Phe(3Br)-Lys-NH2 (H-[Phe(3-Br)]Q[Phe(3-Br)]Q[Phe(3-Br)]K-NH2) [peptide 33]”: the “Minimum gelation concentration (w/v % in PBS)” value in data set [1] is 1-2 w/v %. Moreover, the “Gel strength compared to the non-halogenated peptide” value in data set [2] is “stronger gels”.

As to “FQFQFK-NH2 [peptide 16, H-Phe-Gln-Phe*-Gln-Phe-Lys-NH2]”, the “Minimum gelation concentration (MGC)” value in data set [1] (PBS or saline solution, Example 9) is recorded as 1 % w/v. In [1], the “Minimum gelation concentration (w/v % in PBS)” value is 2 w/v %. The Fibre diameter in data set [3] is given as approximately 5 nm. The Cytotoxicity in vitro entry in the data set on L929 mouse fibroblasts is “showed no cytotoxicity in vitro”. The half-life (in general, the time needed for the level to fall by half in the phase considered) at 9 μM in “in vitro” was approximately 3 min.

On to “WEWQWK-NH2 [peptide 12, H-Trp-Glu-Trp*-Gln-Trp-Lys-NH2]”, for which the “Minimum gelation concentration (w/v % in PBS)” value in [1] is on record as 1 w/v %. In data set [3], this compound registered a Fibre diameter of approximately 5 nm. For the same compound, in the data set on L929 mouse fibroblasts, the Cytotoxicity in vitro entry is “showed no cytotoxicity in vitro”. Moreover, in the data set “in vitro”, the half-life at 9 μM was approximately 21 min.

Turning to “KFQFEF-NH2 [peptide 18, H-Lys-Phe-Gln-Phe*-Glu-Phe-NH2]”, in [1], the “Minimum gelation concentration (w/v % in PBS)” value is recorded as 2 w/v %. In addition, the Fibre diameter in data set [3] is approximately 5 nm. For the same compound, the Cytotoxicity in vitro result with L929 mouse fibroblasts is “showed no cytotoxicity in vitro”. The compound also yielded a half-life at 9 μM in the data set “in vitro” of approximately 5 min.

Regarding `Cc1cc(O)cc(C)c1C[C@H](N)C(=O)N1CCC[C@H]1C(=O)N[C@@H](Cc1ccccc1)C(=O)N[C@@H](Cc1ccccc1)C(=O)N[C@@H](CCC(N)=O)C(=O)N[C@@H](Cc1ccccc1)C(=O)N[C@@H](CCC(N)=O)C(=O)N[C@@H](Cc1ccccc1)C(=O)N[C@@H](CCCCN)C(N)=O` [CM-56, Dmt-Pro-Phe-Phe-Gln-Phe*-Gln-Phe-Lys-NH2] (H-[Dmt]PFFQFQFK-NH2; N-terminus assumed), the values for the inhibition constant Ki on MOR, at DOR and on KOR were 65 nM, 176 nM and 337 nM, respectively.

Compound `NCCCC[C@H](NC(=O)[C@H](Cc1ccccc1)NC(=O)[C@H](CCC(N)=O)NC(=O)[C@H](Cc1ccccc1)NC(=O)C[C@H](Cc1ccccc1)NC(=O)[C@H](CCC(=O)O)NC(=O)[C@@H](N)Cc1ccccc1)C(N)=O` [peptide 27, H-Phe-Glu-13;;-homo-Phe-Phe-Gln-Phe-Lys-NH2] (H-FE[β3hF]FQFK-NH2) returned a Fibre diameter in data set [3] of approximately 5 nm. In the data set on L929 mouse fibroblasts, the Cytotoxicity in vitro entry is “showed no cytotoxicity in vitro”. Besides, the half-life at 9 μM in “in vitro” is approximately 25 min.

Turning to H-DPhe-DGlu-DPhe*-DGln-DPhe-DLys-NH2, the not cleaved entry in the data set “human plasma” (up to 5700 min) was “remained intact after 4 days of incubation”.

As to “Dmt-DArg-Phe-Phe-Gln-Phe*-Gln-Phe-Lys-NH2”, in the data set “human plasma”, the cleaved bond entry is “Gln-Phe, first_seen, 2.5 min; also recorded: Gln-Phe, 7.5 min” and the fragment found entry is listed as “Dmt-DArg-Phe-OH, 60 min”.

Turning to `Cc1cc(O)cc(C)c1C[C@H](N)C(=O)N1CCC[C@H]1C(=O)N[C@@H](Cc1ccccc1)C(=O)N[C@@H](Cc1ccccc1)C(=O)N[C@@H](CCC(=O)O)C(=O)N[C@@H](Cc1ccccc1)C(=O)N[C@@H](CCC(N)=O)C(=O)N[C@@H](Cc1ccccc1)C(=O)N[C@@H](CCCCN)C(N)=O` [CM-54, Dmt-Pro-Phe-Phe-Glu-Phe*-Gln-Phe-Lys-NH2], the affinity at MOR corresponds to a Ki of 135 nM.

In the case of “Dmt-DLys-Phe-Phe-Glu-Phe*-Gln-Phe-Lys-NH2”, the cleaved bond entry in “human plasma” was “Gln-Phe, first_seen, 2.5 min; also recorded: Glu-Phe, 7.5 min”.

In the case of “Dmt-OLy:s-Phe-Phe-Gln-Phe*-Gln-Phe*-Lys-NH2”, in the data set “human plasma”, the fragment found entry is on record as “heptapeptide, first_seen; also recorded: pentapeptide; also recorded: tripeptide”.

For `CN1CC[C@]23c4c5ccc(O)c4O[C@H]2[C@@H](O)C=C[C@H]3[C@H]1C5` [morphine], in the data set on Male CD1 mice, the “Time after administration at which no effect was detected” value is given as 3 h and the “Time of peak antinociceptive action” value was 30 min. For the same compound, the “Antinociceptive effect (% MPE)” value with Male CD1 mice (s.c. bolus in solution, 5 mg/kg (0.15 mg per mouse)) is listed as 80 % MPE.

For `CO[C@@]12CCC(=O)[C@]3(C)Oc4c(O)ccc5c4[C@@]31CCN(C)[C@@H]2C5` [14-MM, 14-methoxymethopon], the “Dose required to produce 80% MPE, times lower than morphine” value with Male CD1 mice (s.c. bolus) came out at 66 times. Besides, in the data set with Male CD1 mice (s.c. bolus 2.25 μg, 30 min), the “Antinociceptive effect at peak of action (% MPE)” value was 80 % of MPE. Moreover, in the data set with Male CD1 mice, the “Time after administration at which no effect was detected” value is given as 4 h and the “Time of peak antinociceptive action” value amounted to 30 min.
